Assay results published in US8324199B2, “Pyridazine derivatives as factor xia inhibitors” (Bristol-Myers Squibb Company, priority 2008, dated 2012).

The molecules below were run against T1, purified human Factor XIa (Homo sapiens, UniProt P03951) (assay: Factor XIa assay (chromogenic substrate hydrolysis, Ki)). Conditions: purified human Factor XIa 75-200 pM, substrate S-2366, 50 mM HEPES pH 7.4.
T1 construct: purchased Haematologic Technologies
T1 sequence (P03951 388-625 limits assumed): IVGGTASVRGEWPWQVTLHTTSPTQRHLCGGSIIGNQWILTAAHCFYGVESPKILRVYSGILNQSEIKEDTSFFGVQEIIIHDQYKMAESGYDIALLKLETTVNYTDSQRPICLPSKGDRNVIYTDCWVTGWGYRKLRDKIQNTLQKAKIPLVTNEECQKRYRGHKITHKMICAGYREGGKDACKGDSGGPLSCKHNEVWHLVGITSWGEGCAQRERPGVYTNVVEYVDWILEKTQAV
T1 sequence (P03951 19-387 partner limits assumed): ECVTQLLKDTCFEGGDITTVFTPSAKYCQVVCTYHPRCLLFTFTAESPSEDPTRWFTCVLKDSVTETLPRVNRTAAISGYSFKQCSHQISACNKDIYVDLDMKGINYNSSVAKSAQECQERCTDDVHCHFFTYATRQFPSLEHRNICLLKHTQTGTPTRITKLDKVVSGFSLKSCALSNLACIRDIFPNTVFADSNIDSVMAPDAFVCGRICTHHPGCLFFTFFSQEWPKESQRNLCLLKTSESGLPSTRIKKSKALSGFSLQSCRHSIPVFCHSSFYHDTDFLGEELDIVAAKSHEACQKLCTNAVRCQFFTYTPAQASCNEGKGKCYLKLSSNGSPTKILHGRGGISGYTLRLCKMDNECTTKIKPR
Assay type: biochemical
Description: The effectiveness of compounds of the present invention as inhibitors of the coagulation factors XIa, VIIa, IXa, Xa, XIIa, plasma kallikrein or thrombin, can be determined using a relevant purified serine protease, respectively, and an appropriate synthetic substrate. The rate of hydrolysis of the chromogenic or fluorogenic substrate by the relevant serine protease was measured both in the absence and presence of compounds of the present invention. […] A decrease in the rate of absorbance or fluorescence change in the presence of inhibitor is indicative of enzyme inhibition. Such methods are known to one skilled in the art. The results of this assay are expressed as the inhibitory constant, Ki.
Factor XIa determinations were made in 50 mM HEPES buffer at pH 7.4 containing 145 mM NaCl, 5 mM KCl, and 0.1% PEG 8000 (polyethylene glycol; JT Baker or Fisher Scientific). Determinations were made using purified human Factor XIa at a final concentration of 75-200 pM (Haematologic Technologies) and the synthetic substrate S-2366 (pyroGlu-Pro-Arg-pNA; Chromogenix or AnaSpec) at a concentration of 0.0002-0.001 M.
The Michaelis constant, Km, for substrate hydrolysis by each protease, was determined at 25° C. using the method of Lineweaver and Burk. Values of Ki were determined by allowing the protease to react with the substrate in the presence of the inhibitor. Reactions were allowed to go for periods of 20-180 minutes (depending on the protease) and the velocities (rate of absorbance or fluorescence change versus time) were measured. The following relationships were used to calculate Ki values: (vo−vs)/vs=I/(Ki(1+S/Km)) for a competitive inhibitor with one binding site; or vs/vo=A+((B−A)/1+((IC50/(I)^n))); and Ki=IC50/(1+S/Km) for a competitive inhibitor where: […]
In the case of `COC(=O)Nc1ccc(-c2cc(C(Cc3ccccc3)NC(=O)/C=C/c3cc(Cl)ccc3-n3ccnc3)c(Cl)nn2)cc1` (racemic) [Example 8, (±)-(E)-Methyl 4-(6-chloro-5-(1-(3-(5-chloro-2-(1H-imidazol-1-yl)phenyl)acrylamido)-2-phenylethyl)pyridazin-3-yl)phenylcarbamate], the Ki is reported as 1160 nM. In the case of `COC(=O)Nc1ccc(-c2cc(C(C)NC(=O)/C=C/c3cc(Cl)ccc3-n3cnnn3)c(Cl)nn2)cc1` (racemic) [Example 11, (±)-(E)-Methyl 4-(6-chloro-5-(1-(3-(5-chloro-2-(1H-tetrazol-1-yl)phenyl)acrylamido)ethyl)pyridazin-3-yl)phenylcarbamate], the Ki is reported as 52 nM. Molecule `Nc1ccc(-c2cc(C(Cc3ccccc3)NC(=O)/C=C/c3cc(Cl)ccc3-n3cnnn3)c(Cl)nn2)cn1` (racemic) [Example 36, (±)-(E)-N-(1-(6-(6-Aminopyridin-3-yl)-3-chloropyridazin-4-yl)-2-phenylethyl)-3-(5-chloro-2-(1H-tetrazol-1-yl)phenyl)acrylamide] has a Ki of 20 nM. `COC(=O)Nc1ccc(-c2cc(C(Cc3ccccc3)NC(=O)/C=C/c3cc(Cl)ccc3-n3cnnn3)c(Cl)nn2)cc1` (single isomer, unassigned) [Example 2, (E)-Methyl 4-(6-chloro-5-(1-(3-(5-chloro-2-(1H-tetrazol-1-yl)phenyl)acrylamido)-2-phenylethyl)pyridazin-3-yl)phenylcarbamate] showed a Ki of 2 nM. `COC(=O)Nc1ccc(-c2cc(C(Cc3ccccc3)NC(=O)/C=C/c3cc(Cl)ccc3-n3cnnn3)c(Cl)nn2)cc1` (single isomer, unassigned) [Example 3, (E)-Methyl 4-(6-chloro-5-(1-(3-(5-chloro-2-(1H-tetrazol-1-yl)phenyl)acrylamido)-2-phenylethyl)pyridazin-3-yl)phenylcarbamate] was tested, and the Ki was 630 nM. `COC(=O)Nc1ccc(-c2cc(C(CC(=O)OC(C)(C)C)NC(=O)/C=C/c3cc(Cl)ccc3-n3cnnn3)c(Cl)nn2)cc1` (single isomer, unassigned) [Example 20, (E)-tert-Butyl 3-(3-(5-chloro-2-(1H-tetrazol-1-yl)phenyl)acrylamido)-3-(3-chloro-6-(4-(methoxycarbonylamino)phenyl)pyridazin-4-yl)propanoate] was tested, and the Ki was 2.9 nM. For `COC(=O)Nc1ccc(-c2cc(C(CC(=O)N3CCN(C)CC3)NC(=O)/C=C/c3cc(Cl)ccc3-n3cnnn3)c(Cl)nn2)cc1` (single isomer, unassigned) [Example 27, (E)-Methyl 4-(6-chloro-5-(1-(3-(5-chloro-2-(1H-tetrazol-1-yl)phenyl)acrylamido)-3-(4-methylpiperazin-1-yl)-3-oxopropyl)pyridazin-3-yl)phenylcarbamate], the Ki was 4 nM. Work on `COC(=O)Nc1ccc(-c2cc([C@H](CC3CCCNC3)NC(=O)/C=C/c3cc(Cl)ccc3-n3cnnn3)nnc2Cl)cc1` (single isomer, unassigned) [Example 99] yielded a Ki of 746 nM. `COC(=O)Nc1ccc(-c2cc([C@H](CC3CCCN(C(=O)C(C)C)C3)NC(=O)/C=C/c3cc(Cl)ccc3-n3cnnn3)nnc2Cl)cc1` (single isomer, unassigned) [Example 118] was tested, and the Ki was 55 nM. In the case of `COC(=O)Nc1ccc(-c2cc([C@H](Cc3ccccc3)NC(=O)/C=C/c3cc(Cl)ccc3-n3cnnn3)nn(C)c2=O)cc1` [Example 40, (S,E)-Methyl 4-(6-(1-(3-(5-chloro-2-(1H-tetrazol-1-yl)phenyl)acrylamido)-2-phenylethyl)-2-methyl-3-oxo-2,3-dihydropyridazin-4-yl)phenylcarbamate], the Ki is reported as 156 nM. In the case of `CCOC(=O)Nc1ccc(-c2cc([C@H](Cc3ccccc3)NC(=O)/C=C/c3cc(Cl)ccc3-n3cnnn3)nnc2OCC)cc1` [Example 51, (S,E)-Ethyl 4-(6-(1-(3-(5-chloro-2-(1H-tetrazol-1-yl)phenyl)acrylamido)-2-phenylethyl)-3-ethoxypyridazin-4-yl)phenylcarbamate], the Ki is reported as 405 nM. `O=C(O)CCOC(=O)Nc1ccc(-c2cnnc([C@H](Cc3ccccc3)NC(=O)CCc3ccccc3-n3cnnn3)c2)cc1` [Example 60, (S)-3-(4-(6-(1-(3-(2-(1H-Tetrazol-1-yl)phenyl)propanamido)-2-phenylethyl)pyridazin-4-yl)phenylcarbamoyloxy)propanoic acid] gave a Ki of 3370 nM. Molecule `COC(=O)Nc1ccc(-c2cc([C@H](Cc3ccccc3)NC(=O)/C=C/c3cc(Cl)ccc3-n3cnnn3)n[nH]c2=O)cc1F` [Example 61, (S,E)-Methyl 4-(6-(1-(3-(5-chloro-2-(1H-tetrazol-1-yl)phenyl)acrylamido)-2-phenylethyl)-3-oxo-2,3-dihydropyridazin-4-yl)-2-fluorophenylcarbamate] has a Ki of 1680 nM. Work on `CCn1ccc(C[C@H](NC(=O)/C=C/c2cc(Cl)ccc2-n2cnnn2)c2cc(-c3ccc(NC(=O)OC)cc3)c(Cl)nn2)n1` [Example 71, (S,E)-Methyl 4-(3-chloro-6-(1-(3-(5-chloro-2-(1H-tetrazol-1-yl)phenyl)acrylamido)-2-(1-ethyl-1H-pyrazol-3-yl)ethyl)pyridazin-4-yl)phenylcarbamate] yielded a Ki of 9.4 nM. With `O=C(/C=C/c1cc(Cl)ccc1-n1cnnn1)N[C@@H](Cc1ccccc1)c1cc(-c2ccc3[nH]c(=O)cc(O)c3c2)cnn1` [Example 78, (S,E)-3-(5-Chloro-2-(1H-tetrazol-1-yl)phenyl)-N-(1-(5-(4-hydroxy-2-oxo-1,2-dihydroquinolin-6-yl)pyridazin-3-yl)-2-phenylethyl)acrylamide] the Ki was 0.84 nM. Work on `NC1CC1C(=O)Nc1ccc(-c2cnnc([C@H](Cc3ccccc3)NC(=O)/C=C/c3cc(Cl)ccc3-n3cnnn3)c2)cc1` (stereo partly drawn) [Example 80, 2-Amino-N-(4-(6-((S)-1-((E)-3-(5-chloro-2-(1H-tetrazol-1-yl)phenyl)acrylamido)-2-phenylethyl)pyridazin-4-yl)phenyl)cyclopropanecarboxamide] yielded a Ki of 3330 nM. `O=C(/C=C/c1cc(Cl)ccc1-n1cnnn1)N[C@@H](Cc1ccccc1)c1cc(-c2ccc(NC(=O)OC3CNC3)cc2)cnn1` [Example 89, (S,E)-Azetidin-3-yl 4-(6-(1-(3-(5-chloro-2-(1H-tetrazol-1-yl)phenyl)acrylamido)-2-phenylethyl)pyridazin-4-yl)phenylcarbamate] gave a Ki of 141 nM. Molecule `COC(=O)Nc1ccc(-c2cc([C@H](CCSC)NC(=O)/C=C/c3cc(Cl)ccc3-n3cnnn3)nnc2Cl)cc1` [Example 90, (S,E)-Methyl 4-(3-chloro-6-(1-(3-(5-chloro-2-(1H-tetrazol-1-yl)phenyl)acrylamido)-3-(methylthio)propyl)pyridazin-4-yl)phenylcarbamate] has a Ki of 67 nM. In the case of `COC(=O)Nc1ccc(-c2cc([C@H](Cc3ccncc3)NC(=O)/C=C/c3cc(Cl)ccc3-n3cnnn3)nnc2Cl)cc1` [Example 94, (S,E)-Methyl 4-(3-chloro-6-(1-(3-(5-chloro-2-(1H-tetrazol-1-yl)phenyl)acrylamido)-2-(pyridin-4-yl)ethyl)pyridazin-4-yl)phenylcarbamate], the Ki is reported as 27 nM. `COC(=O)Nc1ccc(-c2cc([C@H](Cc3cc4n(n3)CCCO4)NC(=O)/C=C/c3cc(Cl)ccc3-n3cnnn3)nnc2Cl)cc1` [Example 97, (S,E)-Methyl 4-(3-chloro-6-(1-(3-(5-chloro-2-(1H-tetrazol-1-yl)phenyl)acrylamido)-2-(6,7-dihydro-5H-pyrazolo[5,1-b][1,3]oxazin-2-yl)ethyl)pyridazin-4-yl)phenylcarbamate] showed a Ki of 17 nM. Molecule `COC(=O)Nc1ccc(-c2cc([C@H](CC3CCCN(C(=O)C4CC4)C3)NC(=O)/C=C/c3cc(Cl)ccc3-n3cnnn3)nnc2Cl)cc1` (stereo partly drawn) [Example 112, Methyl 4-(3-chloro-6-((1S)-1-((E)-3-(5-chloro-2-(1 H-tetrazol-1-yl)phenyl)acrylamido)-2-(1-(cyclopropanecarbonyl)piperidin-3-yl)ethyl)pyridazin-4-yl)phenylcarbamate] has a Ki of 6360 nM. In the case of `CCN1CCC(C[C@H](NC(=O)/C=C/c2cc(Cl)ccc2-n2cnnn2)c2cc(-c3ccc(NC(=O)OC)cc3)c(Cl)nn2)C1` (stereo partly drawn) [Example 116, Methyl 4-(3-chloro-6-((1S)-1-((E)-3-(5-chloro-2-(1 H-tetrazol-1-yl)phenyl)acrylamido)-2-(1-ethylpyrrolidin-3-yl)ethyl)pyridazin-4-yl)phenylcarbamate], the Ki is reported as 327 nM. `COC(=O)Nc1ccc(-c2cc([C@H](Cc3cscn3)NC(=O)/C=C/c3cc(Cl)ccc3-n3cnnn3)nnc2Cl)cc1` [Example 123, (S,E)-Methyl 4-(3-chloro-6-(1-(3-(5-chloro-2-(1H-tetrazol-1-yl)phenyl)acrylamido)-2-(thiazol-4-yl)ethyl)pyridazin-4-yl)phenylcarbamate] gave a Ki of 57 nM. With `COC(=O)Nc1ccc(-c2cc([C@H](Cc3cc([S+](C)[O-])n(C)n3)NC(=O)/C=C/c3cc(Cl)ccc3-n3cnnn3)n[nH]c2=O)cc1` (stereo partly drawn) [Example 132, (S,E)-Methyl 4-(6-(1-(3-(5-chloro-2-(1H-tetrazol-1-yl)phenyl)acrylamido)-2-(1-methyl-5-(methylsulfinyl)-1H-pyrazol-3-yl)ethyl)-3-oxo-2,3-dihydropyridazin-4-yl)phenylcarbamate] the Ki was 76 nM.
